From patent publication US20050197338A1, “Substituted pyrazole urea compounds for the treatment of inflammation” (priority 2003, published 2005)

molecular target: T1, human IKK-2 (rhIKK-2 homodimer) (Homo sapiens, UniProt O14920); assay: IKK-2 Resin Enzyme Assay (Human IKK-2 Enzyme Assay); assay type: biochemical; settings: human IKK-2, resin enzyme assay; read-out: IC50 (μM) hIKK-2
T1 construct: FLAG (DYKDDDDKD) (C); made in house; host or cells: insect cells (baculovirus, pFastBac)
T1 sequence (O14920 1-756): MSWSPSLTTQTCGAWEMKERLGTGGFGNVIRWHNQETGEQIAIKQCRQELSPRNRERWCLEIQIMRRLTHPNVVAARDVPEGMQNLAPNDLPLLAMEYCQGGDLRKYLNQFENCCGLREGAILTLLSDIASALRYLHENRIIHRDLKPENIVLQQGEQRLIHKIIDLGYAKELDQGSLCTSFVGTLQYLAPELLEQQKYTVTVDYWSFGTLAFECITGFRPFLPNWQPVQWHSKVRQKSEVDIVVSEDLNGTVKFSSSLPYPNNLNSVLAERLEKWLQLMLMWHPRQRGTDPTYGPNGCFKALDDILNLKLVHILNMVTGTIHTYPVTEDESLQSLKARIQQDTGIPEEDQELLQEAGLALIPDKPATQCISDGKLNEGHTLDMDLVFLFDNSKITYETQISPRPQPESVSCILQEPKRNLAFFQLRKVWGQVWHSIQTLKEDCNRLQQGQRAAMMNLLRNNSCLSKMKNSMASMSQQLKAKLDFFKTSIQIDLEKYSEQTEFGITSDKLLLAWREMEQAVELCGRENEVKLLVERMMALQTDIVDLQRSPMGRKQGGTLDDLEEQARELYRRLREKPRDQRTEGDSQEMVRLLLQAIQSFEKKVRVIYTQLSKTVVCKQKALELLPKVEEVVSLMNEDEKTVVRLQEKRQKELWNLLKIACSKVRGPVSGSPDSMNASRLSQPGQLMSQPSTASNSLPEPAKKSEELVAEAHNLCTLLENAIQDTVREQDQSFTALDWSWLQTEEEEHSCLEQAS
Method in brief: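 C-terminally FLAG-tagged human IKK-2 homodimer, baculovirus-expressed in insect cells and anti-FLAG purified. Reaction mix: 5 μM biotinylated IκBα peptide (Ser32/Ser36 region), 1 μM ATP with [γ-33P]ATP, 2 mM MgCl2, 2 mM MnCl2, 10 mM NaF, 1 mM DTT, 25 mM HEPES pH 7.6. Incubated 30 min at 25 °C; IC50 derived.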

Row | SMILES | IC50 [µM]
1 | CNC(=O)Nc1cn(-c2ccc(Br)cc2)nc1C(N)=O [Example 16, 1-(4-bromophenyl)-4-{[(methylamino)carbonyl]amino}-1H-pyrazole-3-carboxamide] | 3.1
2 | N#Cc1ccc(-c2ccc(-n3cc(NC(N)=O)c(C(N)=O)n3)cc2)cc1 [Example 100, 4-[(aminocarbonyl)amino]-1-(4′-cyano-1,1′-biphenyl-4-yl)-1H-pyrazole-3-carboxamide] | 1.15
3 | NC(=O)Nc1cn(-c2ccc(-c3ccc(F)cc3O)cc2)nc1C(N)=O [Example 98, 4-[(aminocarbonyl)amino]-1-(4′-fluoro-2′-hydroxy-1,1′-biphenyl-4-yl)-1H-pyrazole-3-carboxamide] | 1.04
4 | NC(=O)COc1cccc(-c2ccc(-n3cc(NC(N)=O)c(C(N)=O)n3)cc2)c1 [Example 175, 4-[(aminocarbonyl)amino]-1-[3′-(2-amino-2-oxoethoxy)-1,1′-biphenyl-4-yl]-1H-pyrazole-3-carboxamide] | 0.18
5 | CC(C)(C)OC(=O)COc1cccc(-c2ccc(-n3cc(NC(N)=O)c(C(N)=O)n3)cc2)c1 [Example 174, tert-butyl [(4′-{3-(aminocarbonyl)-4-[(aminocarbonyl)amino]-1H-pyrazol-1-yl}-1,1′-biphenyl-3-yl)oxy]acetate] | 3.67
6 | N#CCCc1cccc(-c2ccc(-n3cc(NC(N)=O)c(C(N)=O)n3)cc2)c1 [Example 186, 4-[(aminocarbonyl)amino]-1-[3′-(2-cyanoethyl)-1,1′-biphenyl-4-yl]-1H-pyrazole-3-carboxamide] | 0.86
7 | NC(=O)Nc1cn(-c2ccc(-c3ccc(-c4nnn[nH]4)cc3)cc2)nc1C(N)=O [Example 187, 4-[(aminocarbonyl)amino]-1-[4′-(1H-tetrazol-5-yl)-1,1′-biphenyl-4-yl]-1H-pyrazole-3-carboxamide] | 0.821
8 | N#CCOc1ccc(F)cc1-c1cccc(-n2cc(NC(N)=O)c(C(N)=O)n2)c1 [Example 94, 4-[(aminocarbonyl)amino]-1-[2′-(cyanomethoxy)-5′-fluoro-1,1′-biphenyl-3-yl]-1H-pyrazole-3-carboxamide] | 0.22
9 | NC(=O)Nc1cn(-c2ccc(-c3cccc(O)c3)cc2F)nc1C(N)=O [Example 247, 4-[(aminocarbonyl)amino]-1-(3-fluoro-3′-hydroxy-1,1′-biphenyl-4-yl)-1H-pyrazole-3-carboxamide] | 0.457
10 | NC(=O)Nc1cn(-c2ccc(-c3ccc(C(=O)OCc4ccccc4F)c(F)c3)cc2)nc1C(N)=O [Example 162, 2-fluorobenzyl 4′-{3-(aminocarbonyl)-4-[(aminocarbonyl)amino]-1H-pyrazol-1-yl}-3-fluoro-1,1′-biphenyl-4-carboxylate] | 13.7
11 | CNC(=O)Nc1cn(-c2cccc(Br)c2)nc1C(N)=O [Example 15, 1-(3-bromophenyl)-4-{[(methylamino)carbonyl]amino}-1H-pyrazole-3-carboxamide] | 8.05
12 | CCOc1cc(-n2cc(NC(N)=O)c(C(N)=O)n2)ccc1Br [Example 3, 4-[(aminocarbonyl)amino]-1-(4-bromo-3-ethoxyphenyl)-1H-pyrazole-3-carboxamide] | 1.35
13 | NC(=O)Nc1cn(-c2ccc(-c3cc4ccccc4[nH]3)cc2)nc1C(N)=O [Example 141, 4-[(aminocarbonyl)amino]-1-[4-(1H-indol-2-yl)phenyl]-1H-pyrazole-3-carboxamide] | 11.4
14 | Cc1cc(I)ccc1-n1cc(NC(N)=O)c(C(N)=O)n1 [Example 4, 1-(4-iodo-2-methyl-phenyl)-4-ureido-1H-pyrazole-3-carboxylic acid amide] | 2.87
15 | NC(=O)Nc1cn(-c2ccc(I)cc2)nc1C(N)=O [Example 215, 4-[(aminocarbonyl)amino]-1-(4-iodophenyl)-1H-pyrazole-3-carboxamide] | 0.322
16 | COc1ccc(-n2cc(NC(N)=O)c(C(N)=O)n2)cc1Cl [Example 209, 4-[(Aminocarbonyl)amino]-1-(3-chloro-4-methoxyphenyl)-1H-pyrazole-3-carboxamide] | 1.04
17 | NC(=O)Nc1cn(-c2ccc(-c3cc(F)ccc3O)cc2)nc1C(N)=O [Example 99, 4-[(aminocarbonyl)amino]-1-(5′-fluoro-2′-hydroxy-1,1′-biphenyl-4-yl)-1H-pyrazole-3-carboxamide] | 0.75

Row | SMILES | IC50 [µM]
18 | N#CCOc1ccc(F)cc1-c1ccc(-n2cc(NC(N)=O)c(C(N)=O)n2)cc1 [Example 172, 4-[(aminocarbonyl)amino]-1-[2′-(cyanomethoxy)-5′-fluoro-1,1′-biphenyl-4-yl]-1H-pyrazole-3-carboxamide] | 0.044
19 | NC(=O)Nc1cn(-c2ccc(Sc3ccccn3)cc2)nc1C(N)=O [Example 205, 1-(3-carbamoyl-1-(4-(pyridin-2-ylthio)phenyl)-1H-pyrazol-4-yl)urea] | 1.13
20 | NC(=O)Nc1cn(-c2ccc(Br)c(F)c2)nc1C(N)=O [Example 225, 4-[(aminocarbonyl)amino]-1-(4-bromo-3-fluorophenyl)-1H-pyrazole-3-carboxamide] | 0.378
21 | NC(=O)Nc1cn(-c2ccc(-c3cccc(O)c3)c(Cl)c2)nc1C(N)=O [Example 7, 4-[(aminocarbonyl)amino]-1-(2-chloro-3′-hydroxy-1,1′-biphenyl-4-yl)-1H-pyrazole-3-carboxamide] | 0.355
22 | NC(=O)Nc1cn(-c2ccc(Br)cc2)nc1C(N)=O [Example 19, 1-(1-(4-bromophenyl)-3-carbamoyl-1H-pyrazol-4-yl)urea] | 0.31
23 | Cc1cc(-c2cccc(O)c2)ccc1-n1cc(NC(N)=O)c(C(N)=O)n1 [Example 5, 4-[(aminocarbonyl)amino]-1-(3′-hydroxy-3-methyl-1,1′-biphenyl-4-yl)-1H-pyrazole-3-carboxamide] | 5.09
24 | N#CCOc1cc(F)ccc1-c1ccc(-n2cc(NC(N)=O)c(C(N)=O)n2)cc1 [Example 173, 4-[(aminocarbonyl)amino]-1-[2′-(cyanomethoxy)-4′-fluoro-1,1′-biphenyl-4-yl]-1H-pyrazole-3-carboxamide] | 0.15
25 | NC(=O)Nc1cn(-c2ccc(S(=O)(=O)c3ccc(F)cc3)cc2)nc1C(N)=O [Example 204, 1-(1-(4-(4-fluorophenylsulfonyl)phenyl)-3-carbamoyl-1H-pyrazol-4-yl)urea] | 0.013
26 | NC(=O)Nc1cn(-c2ccc(-c3ccc(C(=O)OCc4cccc(F)c4)c(F)c3)cc2)nc1C(N)=O [Example 163, 3-fluorobenzyl 4′-{3-(aminocarbonyl)-4-[(aminocarbonyl)amino]-1H-pyrazol-1-yl}-3-fluoro-1,1′-biphenyl-4-carboxylate] | 16.6
27 | NC(=O)Nc1cn(-c2ccc(S(=O)(=O)c3ccccc3F)cc2)nc1C(N)=O [Example 194, 1-(1-(4-(2-fluorophenylsulfonyl)phenyl)-3-carbamoyl-1H-pyrazol-4-yl)urea] | 0.15
28 | NC(=O)Nc1cn(-c2ccc(Br)c(C(F)(F)F)c2)nc1C(N)=O [Example 1, 4-[(aminocarbonyl)amino]-1-[4-bromo-3-(trifluoromethyl)phenyl]-1H-pyrazole-3-carboxamide] | 0.307
29 | NC(=O)Nc1cn(-c2ccc(-c3ccccc3)cc2)nc1C(N)=O [Example 101, 4-[(aminocarbonyl)amino]-1-(1,1′-biphenyl-4-yl)-1H-pyrazole-3-carboxamide] | 8.07
30 | NC(=O)Nc1cn(-c2cccc(-c3ccc(F)cc3O)c2)nc1C(N)=O [Example 92, 4-[(aminocarbonyl)amino]-1-(4′-fluoro-2′-hydroxy-1,1′-biphenyl-3-yl)-1H-pyrazole-3-carboxamide] | 6.61
31 | NC(=O)Nc1cn(-c2ccc(S(=O)(=O)C3CCCCC3)cc2)nc1C(N)=O [Example 192, 1-(3-carbamoyl-1-(4-(cyclohexylsulfonyl)phenyl)-1H-pyrazol-4-yl)urea] | 0.237
32 | CN(C)CCN(C)C(=O)c1ccc(-c2ccc(-n3cc(NC(N)=O)c(C(N)=O)n3)cc2)cc1F [Example 160, 4-[(aminocarbonyl)amino]-1-(4′-{[[2-(dimethylamino)ethyl](methyl)amino]carbonyl}-3′-fluoro-1,1′-biphenyl-4-yl)-1H-pyrazole-3-carboxamide] | 4.79
33 | NC(=O)Nc1cn(-c2ccc(-c3ccc(C(=O)OCc4ccc(F)cc4)c(F)c3)cc2)nc1C(N)=O [Example 164, 4-fluorobenzyl 4′-{3-(aminocarbonyl)-4-[(aminocarbonyl)amino]-1H-pyrazol-1-yl}-3-fluoro-1,1′-biphenyl-4-carboxylate] | 11.3
34 | Cc1cc(-n2cc(NC(N)=O)c(C(N)=O)n2)ccc1I [Example 8, 1-(4-iodo-3-methyl-phenyl)-4-ureido-1H-pyrazole-3-carboxylic acid amide] | 0.0676
